Measured values reported in patent US20150259344A1, “IMIDAZOLE DERIVATIVE” (DAINIPPON SUMITOMO PHARMA CO., LTD., priority 2012, published 2015).

Molecular target: T1, human α7 nAChR (Homo sapiens, UniProt P36544)
T1 construct: expressed in transfected cells
Test: Evaluation of PAM activity with human α7 nACh receptor stably expressing cells (aequorin luminescence, FDSS7000)
Type: cell-based
Conditions: 1 μM test compound (values marked *, footnote of Table 25); ACh at EC20; ratio of RLU (Max-Min) to control wells; read-out: α7PAM (%) @1 μM
Description: Evaluation of PAM activity with human α7 nACh receptor stably expressing cells
(1) Human α7 nAChR stably expressing cells
Human α7 nAChR stably expressing cells were generated and cultured.
Thus, the cells were subcultured.
Seven days after subculturing, the cells were treated with TrypLE Express to collect them when they were about 80% confluent.
On the next day after seeding, Viviren (cat#E649X, Promega, Madison, Wis., USA) was added to the medium so that the final concentration could be 4 μM (15 μL/well). The plates were centrifuged and then placed in the dark for 4 hours at room temperature.
(2) Preparation of the Test Samples
Each of the test compounds was dissolved in DMSO to prepare each test sample at a concentration of 1000-fold the final concentration. To the solution was added Hanks/20 mM HEPES/0.2% BSA (cat#A3803, Sigma, St. Louis, Mo., USA), and the concentration was adjusted to 6-fold the final concentration.
(3) Evaluation of PAM Activity
FDSS7000 (Hamamatsu Photonics) was used to detect the luminescence signal evoked by α7 nAChR stimulation. The cells and a luminescent substrate were put on a plate, and the test sample was added thereto. […] The ratio of the RLU (Max-Min) of the test-compound-containing wells to that of the control wells was defined as PAM activity.

T1 sequence (P36544 23-502): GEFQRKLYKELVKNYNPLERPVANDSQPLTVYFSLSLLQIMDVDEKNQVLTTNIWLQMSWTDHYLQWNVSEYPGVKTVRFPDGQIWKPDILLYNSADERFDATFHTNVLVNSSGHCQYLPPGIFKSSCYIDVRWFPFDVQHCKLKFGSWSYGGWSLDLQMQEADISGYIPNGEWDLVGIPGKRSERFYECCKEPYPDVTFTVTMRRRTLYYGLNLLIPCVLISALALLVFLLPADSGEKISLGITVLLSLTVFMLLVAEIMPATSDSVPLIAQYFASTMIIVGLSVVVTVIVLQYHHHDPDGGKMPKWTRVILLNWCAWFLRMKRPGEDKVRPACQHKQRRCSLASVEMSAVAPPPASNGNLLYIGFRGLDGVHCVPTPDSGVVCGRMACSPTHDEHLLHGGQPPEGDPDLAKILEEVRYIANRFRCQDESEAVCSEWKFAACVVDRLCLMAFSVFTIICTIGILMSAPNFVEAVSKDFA

Row | SMILES | activity at 1 µM [%]
1 | O=C(C1CCC(F)(F)CC1)N1[C@@H]2CC[C@H]1C[C@@H](n1cnc(-c3cc(F)ccc3F)c1)C2 [Example 430] | 110
2 | O=C(N[C@H]1CC[C@@H](n2cnc(-c3cccc(F)c3)c2Cl)CC1)C1CCC1 [Example 176] | 258

Same assay, conditions: 10 μM test compound; ACh at EC20; ratio of RLU (Max-Min) to control wells

Row | SMILES | α7PAM (%) @10 μM [%]
3 | CC(C)(F)C(=O)N[C@H]1CC[C@@H](n2cnc(-c3ccc(F)cc3)c2)CC1 [Example 277] | 424

Same assay, conditions: 10 μM test compound; ACh at EC20; ratio of RLU (Max-Min) to control wells; read-out: α7PAM (%) @10 μM

Row | SMILES | activity at 10 µM [%]
4 | N#Cc1c(-c2ccc(F)cc2)ncn1C1CCN(C(=O)C2CC(F)(F)C2)CC1 [Example 267] | 594
5 | CC(C)(F)C(=O)N[C@H]1CC[C@@H](n2cnc(-c3cccc(OC(F)(F)F)c3)c2Cl)CC1 [Example 325] | 210
6 | O=C(C1CCC(F)(F)CC1)N1[C@@H]2CC[C@H]1C[C@@H](n1cnc(-c3ccc(F)cc3F)c1)C2 [Example 426] | 308
7 | O=C(NC1CCC(F)(F)CC1)N1[C@@H]2CC[C@H]1C[C@H](n1cnc(-c3cc(F)ccc3F)c1Cl)C2 [Example 419] | 913
8 | N#Cc1c(-c2ccc(F)c(F)c2)ncn1C1CCN(C(=O)C2CCC(F)(F)CC2)CC1 [Example 273] | 139
9 | N#Cc1c(-c2cccc(F)c2F)ncn1C1CCN(C(=O)C2CCC(F)(F)CC2)CC1 [Example 272] | 138
10 | O=C(NC1CCCCC1)N1CCC(n2cnc(-c3cc(F)cc(F)c3)c2)CC1 [Example 34] | 596
11 | COc1ccc(-c2ncn([C@H]3CC[C@@H](NC(=O)C4CCC4)CC3)c2Cl)cc1Cl [Example 179] | 269
12 | N#Cc1c(-c2ccccc2)ncn1C1CCN(C(=O)C2CCC(F)(F)CC2)CC1 [Example 7, 1-{1-[(4,4-Difluorocyclohexyl)carbonyl]piperidin-4-yl}-4-phenyl-1H-imidazole-5-carbonitrile] | 644
13 | CO[C@H]1CC[C@H](NC(=O)N2CCC(n3cnc(-c4ccc(C(F)(F)F)cc4)c3)CC2)CC1 [Example 4, N-(trans-4-Methoxycyclohexyl)-4-{4-[4-(trifluoromethyl)phenyl]-1H-imidazol-1-yl}piperidine-1-carboxamide] | 220
14 | O=C(N[C@H]1CC[C@@H](n2cnc(-c3ccc(F)cc3)c2)CC1)C1CCOCC1 [Example 282] | 229
15 | N#Cc1c(-c2ccccc2)ncn1C1CCN(C(=O)C2CCCCC2)CC1 [Example 153] | 538
16 | O=C(NC1CCCCC1)N1CCC(n2cnc(-c3ccc(Cl)cc3)c2)CC1 [Example 20] | 656
17 | CC(C)(F)C(=O)N[C@H]1CC[C@@H](n2cnc(-c3cccc(F)c3)c2Cl)CC1 [Example 175] | 397
18 | COc1cc(-c2ncn([C@H]3CC[C@@H](NC(=O)C(C)(C)F)CC3)c2Cl)ccc1F [Example 186] | 254
19 | O=C(NC1CCC(F)(F)CC1)N1CCC(n2cnc(-c3cc(F)cc(F)c3)c2)CC1 [Example 35] | 878
20 | O=C(NC1CCOCC1)N1[C@@H]2CC[C@H]1C[C@@H](n1cnc(-c3ccc(F)cc3F)c1Cl)C2 [Example 395] | 869
21 | COc1ccc(-c2cn([C@H]3CC[C@@H](NC(=O)C(C)(C)F)CC3)cn2)c(F)c1 [Example 307] | 634
22 | O=C(NC1CCC(F)(F)CC1)N1CCC(n2cnc(-c3cccs3)c2)CC1 [Example 125] | 466
23 | O=C(C1CCC(F)(F)CC1)N1CCC(n2cnc(-c3ccc(F)c(F)c3)c2)CC1 [Example 139] | 274
24 | CCc1c(-c2ccccc2)ncn1C1CCN(C(=O)NC2CCCCC2)CC1 [Example 103] | 452
25 | O=C(NC1CCCCC1)N1[C@@H]2CC[C@H]1C[C@@H](n1cnc(-c3ccc(F)cc3)c1)C2 [Example 382] | 222

Row | SMILES | activity at 10 µM [%]
26 | O=C(NC1CCOCC1)N1[C@@H]2CC[C@H]1C[C@@H](n1cnc(-c3cc(F)ccc3F)c1Cl)C2 [Example 397] | 522
27 | CC(C)(C(=O)N[C@H]1CC[C@@H](n2cnc(-c3ccc(Cl)cc3)c2)CC1)C(F)(F)F [Example 293] | 211
28 | N#Cc1c(-c2ccc(F)cc2F)ncn1[C@@H]1C[C@H]2CC[C@@H](C1)N2C(=O)C1CCC(F)(F)CC1 [Example 462] | 384
29 | O=C(NC1CCOCC1)[C@H]1CC[C@@H](n2cnc(-c3cccc(F)c3)c2Cl)CC1 [Example 359] | 581
30 | O=C(NC1CCCCC1)N1[C@@H]2CC[C@H]1C[C@@H](n1cnc(-c3ccc(F)cc3)c1Cl)C2 [Example 390] | 683
31 | CC(C)(F)C(=O)N[C@H]1CC[C@@H](n2cnc(-c3ccccc3F)c2C#N)CC1 [Example 337] | 492
32 | O=C(Nc1ccccc1F)N1CCC(n2cnc(-c3c(F)cccc3F)c2)CC1 [Example 12] | 283
33 | N#Cc1c(-c2cccc(F)c2)ncn1C1CCN(C(=O)C2CC(F)(F)C2)CC1 [Example 269] | 452
34 | CC(C)(F)C(=O)N[C@H]1CC[C@@H](n2cnc(-c3c(F)cccc3F)c2)CC1 [Example 315] | 501
35 | O=C(NC1CCCCC1)N1CCC(n2cnc(-c3ccccc3)c2C2CC2)CC1 [Example 108] | 576
36 | O=C(NC1CCCCC1)N1CCC(n2cnc(-c3ccccc3)c2CO)CC1 [Example 110] | 201
37 | O=C(Nc1ccccc1F)N1CCC(n2cnc(-c3ccc(C(F)(F)F)cc3)c2)CC1 [Example 24] | 228
38 | CC(C)(C)NC(=O)N1CCC(n2cnc(-c3ccccc3)c2C2CC2)CC1 [Example 109] | 457
39 | COc1cccc(-c2cn(C3CCN(C(=O)NC(C)(C)C)CC3)cn2)c1 [Example 70] | 158
40 | N#Cc1c(-c2ccc(F)cc2F)ncn1[C@@H]1C[C@H]2CC[C@@H](C1)N2C(=O)NC1CCC(F)(F)CC1 [Example 422] | 131
41 | O=C(NC1CCCCC1)N1CCC(n2cnc(-c3ccccc3)c2)CC1 [Example 37] | 366
42 | CC(C)(F)C(=O)N[C@H]1CC[C@@H](n2cnc(-c3cccc(C(F)(F)F)c3)c2C#N)CC1 [Example 202] | 263
43 | CC(C)(F)C(=O)N[C@H]1CC[C@@H](n2cnc(-c3ccc(F)c(OC(F)(F)F)c3)c2Cl)CC1 [Example 330] | 154
44 | O=C(NC1CCC(F)(F)CC1)N1CCC(n2cnc(-c3ccc(OC(F)F)cc3)c2)CC1 [Example 60] | 616
45 | COc1cccc(-c2cn(C3CCN(C(=O)NC4CCCCC4)CC3)cn2)c1 [Example 71] | 422
46 | Cc1ccccc1-c1cn(C2CCN(C(=O)Nc3ccccc3F)CC2)cn1 [Example 13] | 161

Same assay, conditions: comparison across Tables 18 to 25

Row | SMILES | PAM activity for α7 nAChR (in words)
47 | O=C(NC1CCCCC1)N1CCC(n2cnc(-c3ccccc3)c2Cl)CC1 [Example 73] | stronger PAM activity than others
48 | N#Cc1c(-c2ccccc2)ncn1C1CCN(C(=O)NC2CCC(F)(F)CC2)CC1 [Example 99] | stronger PAM activity than others
49 | O=C(NC1CCC(F)(F)CC1)N1CCC(n2cnc(-c3ccc(Cl)s3)c2)CC1 [Example 118] | stronger PAM activity than others
50 | N#Cc1c(-c2ccc(OC(F)(F)F)cc2)ncn1[C@H]1CC[C@@H](C(=O)NC2CCOCC2)CC1 [Example 380] | stronger PAM activity than others
51 | O=C(NC1CCOCC1)N1[C@@H]2CC[C@H]1C[C@H](n1cnc(-c3ccc(F)cc3F)c1Cl)C2 [Example 416] | stronger PAM activity than others
